Experimental data published in ChEMBL document CHEMBL2311450, “Synthesis and antibacterial evaluation of novel 11,4″-disubstituted azithromycin analogs with greatly improved activity against erythromycin-resistant bacteria” (2013).
Converted amounts (≈) assume the structure as drawn.

Columns and labels:
[1] = system: Staphylococcus aureus; assay: Antibacterial activity against penicillin-resistant Staphylococcus aureus clinical isolate by broth microdilution method; format: functional
[2] = system: Salmonella typhimurium; assay: Antibacterial activity against Salmonella typhimurium TA98 by broth microdilution method; format: functional, Salmonella enterica subsp. enterica serovar Typhimurium; conditions: Salmonella enterica
[3] = system: Streptococcus pyogenes; assay: Antibacterial activity against erythromycin-susceptible Streptococcus pyogenes by broth microdilution method; format: functional
[4] = system: Salmonella typhimurium; assay: Antibacterial activity against Salmonella typhimurium TA102 by broth microdilution method; format: functional, Salmonella enterica subsp. enterica serovar Typhimurium; conditions: Salmonella enterica
[5] = system: Streptococcus pyogenes; assay: Antibacterial activity against erythromycin-resistant Streptococcus pyogenes RE clinical isolate by broth microdilution method; format: functional
[6] = system: Staphylococcus aureus; assay: Antibacterial activity against erythromycin-susceptible Staphylococcus aureus ATCC 25923 by broth microdilution method; format: functional
[7] = system: Streptococcus pneumoniae; assay: Antibacterial activity against erythromycin-resistant Streptococcus pneumoniae AB11 expressing erm and mef genes by broth microdilution method; format: functional
[8] = system: Staphylococcus aureus; assay: Antibacterial activity against methicillin-susceptible Staphylococcus aureus ATCC 29213 by broth microdilution method; format: functional
[9] = system: Streptococcus pneumoniae; assay: Antibacterial activity against erythromycin-susceptible Streptococcus pneumoniae ATCC 49619 by broth microdilution method; format: functional
[10] = system: Streptococcus pneumoniae; assay: Antibacterial activity against erythromycin-resistant Streptococcus pneumoniae B1 expressing erm gene by broth microdilution method; format: functional
[11] = system: Streptococcus pneumoniae; assay: Antibacterial activity against erythromycin-resistant Streptococcus pneumoniae A22072 expressing mef gene by broth microdilution method; format: functional

CC[C@H]1OC(=O)[C@H](C)[C@@H](O[C@H]2C[C@@](C)(OC)[C@@H](OC(=O)NCCCCNC(=O)c3ccc(OC)cc3)[C@H](C)O2)[C@H](C)[C@@H](O[C@@H]2O[C@H](C)C[C@H](N(C)C)[C@H]2O)[C@](C)(O)C[C@@H](C)CN(C)[C@H](C)[C@@H](OC(=O)NCCc2ccccc2)[C@]1(C)O
MIC [1]: 4 µg/mL (≈ 3.5 µM)
MIC [2]: 4 µg/mL (≈ 3.5 µM)
MIC [3]: 16 µg/mL (≈ 14 µM)
MIC [4]: 0.5 µg/mL (≈ 0.437 µM)
MIC [5]: 64 µg/mL (≈ 55.9 µM)
MIC [6]: 1 µg/mL (≈ 0.874 µM)
MIC [7]: 4 µg/mL (≈ 3.5 µM)
MIC [8]: 0.5 µg/mL (≈ 0.437 µM)
MIC [9]: 0.06 µg/mL (≈ 0.0524 µM)
MIC [10]: 1 µg/mL (≈ 0.874 µM)
MIC [11]: 0.25 µg/mL (≈ 0.218 µM)

CC[C@H]1OC(=O)[C@H](C)[C@@H](O[C@H]2C[C@@](C)(OC)[C@@H](OC(=O)NCCCCNC(=O)c3ccc(OC)cc3)[C@H](C)O2)[C@H](C)[C@@H](O[C@@H]2O[C@H](C)C[C@H](N(C)C)[C@H]2O)[C@](C)(O)C[C@@H](C)CN(C)[C@H](C)[C@@H](OC(=O)NCCc2ccc(OC)cc2)[C@]1(C)O
MIC [1]: 8 µg/mL (≈ 6.81 µM)
MIC [2]: 4 µg/mL (≈ 3.41 µM)
MIC [3]: 16 µg/mL (≈ 13.6 µM)
MIC [4]: 0.5 µg/mL (≈ 0.426 µM)
MIC [5]: 64 µg/mL (≈ 54.5 µM)
MIC [6]: 1 µg/mL (≈ 0.851 µM)
MIC [7]: 8 µg/mL (≈ 6.81 µM)
MIC [8]: 1 µg/mL (≈ 0.851 µM)
MIC [9]: 0.06 µg/mL (≈ 0.0511 µM)
MIC [10]: 2 µg/mL (≈ 1.7 µM)
MIC [11]: 0.25 µg/mL (≈ 0.213 µM)

CC[C@H]1OC(=O)[C@H](C)[C@@H](O[C@H]2C[C@@](C)(OC)[C@@H](OC(=O)NCCCCNC(=O)c3ccc(OC)cc3)[C@H](C)O2)[C@H](C)[C@@H](O[C@@H]2O[C@H](C)C[C@H](N(C)C)[C@H]2O)[C@](C)(O)C[C@@H](C)CN(C)[C@H](C)[C@@H](OC(=O)NCCc2ccc(F)cc2)[C@]1(C)O
MIC [1]: 4 µg/mL (≈ 3.44 µM)
MIC [2]: 4 µg/mL (≈ 3.44 µM)
MIC [3]: 16 µg/mL (≈ 13.8 µM)
MIC [4]: 2 µg/mL (≈ 1.72 µM)
MIC [5]: 64 µg/mL (≈ 55.1 µM)
MIC [6]: 1 µg/mL (≈ 0.86 µM)
MIC [7]: 8 µg/mL (≈ 6.88 µM)
MIC [8]: 2 µg/mL (≈ 1.72 µM)
MIC [9]: 0.12 µg/mL (≈ 0.103 µM)
MIC [10]: 4 µg/mL (≈ 3.44 µM)
MIC [11]: 0.5 µg/mL (≈ 0.43 µM)

CC[C@H]1OC(=O)[C@H](C)[C@@H](O[C@H]2C[C@@](C)(OC)[C@@H](OC(=O)NCCCCNC(=O)c3ccc(OC)cc3)[C@H](C)O2)[C@H](C)[C@@H](O[C@@H]2O[C@H](C)C[C@H](N(C)C)[C@H]2O)[C@](C)(O)C[C@@H](C)CN(C)[C@H](C)[C@@H](OC(=O)NCCc2ccccc2Cl)[C@]1(C)O
MIC [1]: 4 µg/mL (≈ 3.39 µM)
MIC [2]: 2 µg/mL (≈ 1.7 µM)
MIC [3]: 16 µg/mL (≈ 13.6 µM)
MIC [4]: 8 µg/mL (≈ 6.79 µM)
MIC [5]: 64 µg/mL (≈ 54.3 µM)
MIC [6]: 0.5 µg/mL (≈ 0.424 µM)
MIC [7]: 8 µg/mL (≈ 6.79 µM)
MIC [8]: 1 µg/mL (≈ 0.848 µM)
MIC [9]: 0.06 µg/mL (≈ 0.0509 µM)
MIC [10]: 2 µg/mL (≈ 1.7 µM)
MIC [11]: 0.5 µg/mL (≈ 0.424 µM)

CC[C@H]1OC(=O)[C@H](C)[C@@H](O[C@H]2C[C@@](C)(OC)[C@@H](OC(=O)NCCCCNC(=O)c3ccccc3OC)[C@H](C)O2)[C@H](C)[C@@H](O[C@@H]2O[C@H](C)C[C@H](N(C)C)[C@H]2O)[C@](C)(O)C[C@@H](C)CN(C)[C@H](C)[C@@H](OC(=O)NCCc2ccccc2)[C@]1(C)O
MIC [1]: 8 µg/mL (≈ 6.99 µM)
MIC [2]: 4 µg/mL (≈ 3.5 µM)
MIC [3]: 16 µg/mL (≈ 14 µM)
MIC [4]: 1 µg/mL (≈ 0.874 µM)
MIC [5]: 16 µg/mL (≈ 14 µM)
MIC [6]: 0.5 µg/mL (≈ 0.437 µM)
MIC [7]: 16 µg/mL (≈ 14 µM)
MIC [8]: 32 µg/mL (≈ 28 µM)
MIC [9]: 0.12 µg/mL (≈ 0.105 µM)
MIC [10]: 8 µg/mL (≈ 6.99 µM)
MIC [11]: 2 µg/mL (≈ 1.75 µM)

CC[C@H]1OC(=O)[C@H](C)[C@@H](O[C@H]2C[C@@](C)(OC)[C@@H](OC(=O)NCCCCNC(=O)c3ccc(OC)c(OC)c3)[C@H](C)O2)[C@H](C)[C@@H](O[C@@H]2O[C@H](C)C[C@H](N(C)C)[C@H]2O)[C@](C)(O)C[C@@H](C)CN(C)[C@H](C)[C@@H](OC(=O)NCCc2ccccc2)[C@]1(C)O
MIC [1]: 16 µg/mL (≈ 13.6 µM)
MIC [2]: 4 µg/mL (≈ 3.41 µM)
MIC [3]: 8 µg/mL (≈ 6.81 µM)
MIC [4]: 4 µg/mL (≈ 3.41 µM)
MIC [5]: 64 µg/mL (≈ 54.5 µM)
MIC [6]: 0.5 µg/mL (≈ 0.426 µM)
MIC [7]: 16 µg/mL (≈ 13.6 µM)
MIC [8]: 32 µg/mL (≈ 27.2 µM)
MIC [9]: 0.12 µg/mL (≈ 0.102 µM)
MIC [10]: 8 µg/mL (≈ 6.81 µM)
MIC [11]: 2 µg/mL (≈ 1.7 µM)

CC[C@H]1OC(=O)[C@H](C)[C@@H](O[C@H]2C[C@@](C)(OC)[C@@H](OC(=O)NNC(=O)c3ccc(Cl)cc3)[C@H](C)O2)[C@H](C)[C@@H](O[C@@H]2O[C@H](C)C[C@H](N(C)C)[C@H]2O)[C@](C)(O)C[C@@H](C)CN(C)[C@H](C)[C@@H](OC(=O)NCCc2ccccc2)[C@]1(C)O
MIC [1]: 8 µg/mL (≈ 7.32 µM)
MIC [2]: 1 µg/mL (≈ 0.915 µM)
MIC [3]: 1 µg/mL (≈ 0.915 µM)
MIC [4]: 8 µg/mL (≈ 7.32 µM)
MIC [5]: 32 µg/mL (≈ 29.3 µM)
MIC [6]: 0.5 µg/mL (≈ 0.458 µM)
MIC [7]: 8 µg/mL (≈ 7.32 µM)
MIC [8]: 2 µg/mL (≈ 1.83 µM)
MIC [9]: 0.03 µg/mL (≈ 0.0275 µM)
MIC [10]: 2 µg/mL (≈ 1.83 µM)
MIC [11]: 0.12 µg/mL (≈ 0.11 µM)

CC[C@H]1OC(=O)[C@H](C)[C@@H](O[C@H]2C[C@@](C)(OC)[C@@H](OC(=O)NCCNC(=O)c3ccc(C)cc3)[C@H](C)O2)[C@H](C)[C@@H](O[C@@H]2O[C@H](C)C[C@H](N(C)C)[C@H]2O)[C@](C)(O)C[C@@H](C)CN(C)[C@H](C)[C@@H](OC(=O)NCCc2ccccc2)[C@]1(C)O
MIC [1]: 8 µg/mL (≈ 7.27 µM)
MIC [2]: 2 µg/mL (≈ 1.82 µM)
MIC [3]: 8 µg/mL (≈ 7.27 µM)
MIC [4]: 2 µg/mL (≈ 1.82 µM)
MIC [5]: 64 µg/mL (≈ 58.2 µM)
MIC [6]: 1 µg/mL (≈ 0.909 µM)
MIC [7]: 8 µg/mL (≈ 7.27 µM)
MIC [8]: 2 µg/mL (≈ 1.82 µM)
MIC [9]: 0.06 µg/mL (≈ 0.0545 µM)
MIC [10]: 2 µg/mL (≈ 1.82 µM)
MIC [11]: 0.12 µg/mL (≈ 0.109 µM)
